{
  "source": "patent US20060094031A1",
  "about": "“Alpha-L-arabinofuranosidase histochemical reporter gene assay” (Stowers Institute for Medical Research, priority 2004, published 2006)",
  "key": {"[1]": {"tested_on": "β-galactosidase (lacZ) expressed in NIH 3T3 cells", "conditions": "for color of cells expressing lacZ after staining with the substrate: histochemical staining", "experimental": "(§1) FIG. 1 depicts a schematic of the CMV abfA expression vector. […] NIH 3T3 cells were transfected with CMV-abfA and 30 hours later were fixed with 2% formaldehyde, 0.2% glutaraldehyde for 5 minutes and then processed for histochemical detection of abfA expression using a standard protocol for lacZ detection (5), but substituting Z-ara (0.02%) for X-gal. The synthesis for Z-ara is described in Example 3. Just like X-gal, Z-ara is a colorless water-soluable chromogen that forms an insoluable blue precipitate upon hydrolysis. […] Alternative β-galactosidase substrates to X-gal, 6-chloro-3-indolyl-β-D-galactopyranaside (“Red-gal,” Research Organics, Cleveland, Ohio, USA) and 5-bromo-6-chloro-3-indolyl-β-D-galactopyranoside (“Magenta-gal,” BioSynth AG, Switzerland), allow LacZ^+ cells to appear red instead of blue and thus easily distinguishable from Z-ara positive cells.\n(§2) To determine whether α-L-arabinofuranosidase and β-galactosidase could be detected both in the same cell, NHI 3T3 cells were co-transfected with CMV-abfA and with proBGN (7), a plasmid encoding the lacZ gene tagged with a nuclear localization signal. […] One day after transfection cells were fixed followed by in situ visualization of β-galactosidase and α-L-arabinofuranosidase activities by incubation with 0.02% Magenta-gal and 0.02% Z-ara, respectively. Imaging was with a Leica DMR microscope mounted with an Optronics Magnafire digital camera."}, "[2]": {"biological_target": "T1, α-L-arabinofuranosidase (S. lividans abfA gene) expressed in NIH 3T3 cells (Streptomyces lividans, UniProt P53627)", "T1 construct": "expressed in transfected cells; host or cells: NIH 3T3 cells transfected with CMV-abfA (pcDNA3 backbone)", "T1 sequence (P53627 1-662)": "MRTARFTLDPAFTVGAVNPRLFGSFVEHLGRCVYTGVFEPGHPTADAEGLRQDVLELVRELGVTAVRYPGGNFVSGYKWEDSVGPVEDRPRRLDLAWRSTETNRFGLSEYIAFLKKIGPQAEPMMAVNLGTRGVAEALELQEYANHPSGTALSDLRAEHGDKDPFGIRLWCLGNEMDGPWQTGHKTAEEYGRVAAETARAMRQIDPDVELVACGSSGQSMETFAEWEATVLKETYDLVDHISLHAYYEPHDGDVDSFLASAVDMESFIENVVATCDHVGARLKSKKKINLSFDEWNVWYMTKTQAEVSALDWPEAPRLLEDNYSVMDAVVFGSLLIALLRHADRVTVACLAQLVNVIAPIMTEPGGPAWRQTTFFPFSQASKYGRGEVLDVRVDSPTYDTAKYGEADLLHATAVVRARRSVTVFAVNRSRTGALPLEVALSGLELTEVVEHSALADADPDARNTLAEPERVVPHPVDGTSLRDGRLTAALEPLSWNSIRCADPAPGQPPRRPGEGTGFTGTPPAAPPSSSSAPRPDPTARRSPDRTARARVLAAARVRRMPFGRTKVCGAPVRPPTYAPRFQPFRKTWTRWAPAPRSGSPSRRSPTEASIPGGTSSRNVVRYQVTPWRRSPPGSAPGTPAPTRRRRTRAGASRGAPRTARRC", "test": "histochemical (in situ) detection of abfA expression in transfected mammalian cells with chromogenic substrate", "type": "cell-based", "conditions": "for color of cells expressing abfA after staining with the substrate: NIH 3T3 cells transfected with CMV-abfA, fixed 30 hours later, substrate 0.02% in lacZ detection protocol", "experimental": "as §1\nOne feature of the Z-ara substrate is that the 5-bromo-3-indoloxyl-derived final product has birefringent properties.\nas §2"}, "[3]": {"test": "solubility of the chromogen in water", "type": "physicochemical", "conditions": "unhydrolysed chromogen; forms insoluable blue precipitate upon hydrolysis"}},
  "note": "“Also recorded” adds a separate entry of the source.",
  "data": [
    {"compound": "5-bromo-6-chloro-3-indolyl-β-D-galactopyranoside [Magenta-gal]", "values": [
      {"measurement": "color of cells expressing lacZ after staining with the substrate", "setting": "[1]", "result": "red"},
      {"measurement": "staining from lacZ expression in co-transfected cells (dual detection)", "setting": "[1]; NIH 3T3 co-transfected with CMV-abfA and proBGN (nuclear-localizing β-galactosidase), one day after transfection, 0.02% substrate, FIGS. 2(C), 2(D)", "result": "red nucleus"}
    ]},
    {"compound": "OC[C@H]1O[C@@H](Oc2c[nH]c3cc(Cl)ccc23)[C@H](O)[C@@H](O)[C@H]1O", "note": "[Red-gal, 6-chloro-3-indolyl-β-D-galactopyranaside]", "values": [
      {"measurement": "color of cells expressing lacZ after staining with the substrate", "setting": "[1]", "result": "red"}
    ]},
    {"compound": "OC[C@H]1O[C@@H](Oc2c[nH]c3ccc(Br)c(Cl)c23)[C@H](O)[C@@H](O)[C@H]1O", "note": "[X-gal, 5-bromo-4-chloro-3-indolyl-β-D-galactosidase]", "values": [
      {"measurement": "color of cells expressing abfA after staining with the substrate", "setting": "[2]", "result": "no color change; also recorded: no blue staining"},
      {"measurement": "solubility in water", "setting": "[3]", "result": "water-soluable"}
    ]},
    {"compound": "OC[C@H]1O[C@@H](Oc2c[nH]c3ccc(Br)cc23)C(O)C1O", "note": "(stereo partly drawn) [Z-ara, 5-bromo-3-indolyl-α-arabinofuranoside]", "values": [
      {"measurement": "subcellular location of staining in abfA-expressing cells", "setting": "[2]; NIH 3T3, CMV-abfA, FIG. 2(A)", "result": "predominantly cytoplasmic"},
      {"measurement": "appearance of stained AbfA+ cells under polarized light", "setting": "[2]; NIH 3T3, CMV-abfA, polarized light, FIG. 2(B)", "result": "distinct yellow birefringence"},
      {"measurement": "color of cells expressing abfA after staining with the substrate", "setting": "[2]", "result": "dark blue"},
      {"measurement": "staining from abfA expression in co-transfected cells (dual detection)", "setting": "[2]; NIH 3T3 co-transfected with CMV-abfA and proBGN, one day after transfection, 0.02% substrate, FIGS. 2(C), 2(D)", "result": "blue cytoplasm"},
      {"measurement": "color of cells expressing lacZ after staining with the substrate", "setting": "[1]", "result": "remain colorless"},
      {"measurement": "solubility in water", "setting": "[3]", "result": "water-soluable"}
    ]}
  ]
}
